Converted amounts (≈) assume the structure as drawn. Like-named read-outs stand apart in the source and are kept apart here.
How the values were obtained:
[1] = tested on: SW480; assay: Cytotoxicity (MTT) under normoxia, SW480; assay type: cell-based; conditions: Homo sapiens
Procedure: (§1) The cytotoxicity of the compounds 5a–c and their parent alkaloids was evaluated by the 3-[4,5-dimethylthiazole-2-yl]-2,5-diphenyltetrazolium bromide (MTT) assay against 5 cancerous and 2 non-cancerous cell lines (Table 4).
(§2) The eight cell lines HEK293 (Human embryonic kidney 293), CHO-K1 (Chinese hamster ovary K1), MCF-7 cells (Human breast adenocarcinoma), HCT116 (human colorectal carcinoma), RKO (Human rectal carcinoma), SW480 (human colorectal carcinoma), H460 (Human lung cancer), and MRC5 (Normal human foetal lung fibroblast), were obtained from the ATCC. The cell lines were routinely grown in alpha minimum essential medium (α-MEM) containing 5% foetal calf serum (FCS). The appropriate number of cells (HCT116 = 400 cells/well, H460 cells = 600 cells/well) were seeded into 96-well plates under normoxic or hypoxic conditions. Cells were plated in 100 µL α-MEM containing 10% FCS, 10mM D-Glucose and 0.2mM 2′-deoxycytidine. After incubation for 2 h, the compounds were added at the appropriate concentration and incubated for further 4 h. The cells were then washed three times with drug-free α-MEM (containing 5% FCS and pen/strep). The plates were then incubated for 5 days under normoxic conditions. The cells were stained with sulphorhodamine B to measure total cells. The IC50 was determined by interpolation as the compound concentration reducing staining to 50% of controls on the same plate.

[2] = tested on: HEK293; assay: Cytotoxicity (MTT) under normoxia, HEK293; assay type: cell-based; conditions: Homo sapiens
Procedure: as §1, §2

[3] = tested on: HCT116; assay: Cytotoxicity (MTT) under normoxia, HCT116; assay type: cell-based; conditions: Homo sapiens
Procedure: as §1, §2

[4] = tested on: MCF7; assay: Cytotoxicity (MTT) under normoxia, MCF7; assay type: cell-based; conditions: Homo sapiens
Procedure: as §1, §2

[5] = tested on: RKO; assay: Cytotoxicity (MTT) under normoxia, RKO; assay type: cell-based; conditions: Homo sapiens, read-out: IC50 RKO
Procedure: as §1, §2

[6] = in vitro; conditions: male, Balb/c, mouse, pH 7.4
Procedure: Mouse hepatic microsomes were isolated from pooled, perfused livers of Balb/c male mice according to the standard protocol. […] Microsomal incubations were carried out in 96-well plates in 5 aliquots of 40 μL each. […] Control incubations were performed by replacing the NADPH-cofactor system with PBS. The additional control incubations in PBS (with 3.3 mM MgCl2) without added microsomes were carried out in this study. […] The incubations were performed in duplicates. Five time points over 40 min had been analyzed. The reactions were stopped by adding 12 volumes of 90% acetonitrile-water to incubation aliquots, followed by protein sedimentation by centrifuging at 5500 rpm for 3 min. The supernatants were analyzed using LC-MS as mentioned above.

[7] = tested on: CHO-K1; assay: Cytotoxicity (MTT) under normoxia, CHO-K1; assay type: cell-based, Chinese hamster; conditions: Cricetulus griseus
Procedure: as §1, §2

[8] = tested on: MRC5; assay: Cytotoxicity (MTT) under normoxia, MRC5; assay type: cell-based; conditions: Homo sapiens
Procedure: as §1, §2

[9] = BBB-Parallel Artificial Membrane Permeability Assay (BBB-PAMPA); assay type: in vitro ADME; conditions: mean ± SE
Procedure: The physicochemical properties of the new compounds were evaluated (Table 1). […] Consequently, these derivatives lost their BBB penetrability, as predicted by the BBB-Parallel Artificial Membrane Permeability Assay (BBB-PAMPA), whereas their parent alkaloids had free passage through the BBB.
(§3) Water solubility, logD, and PAMPA-BBB were evaluated using the protocols we previously described.

[10] = Solubility in PBS (pH 7.4); assay type: physicochemical; conditions: aqueous buffer, mean ± SE
Procedure: as §3

[11] = Plasma protein binding (PPB); assay type: in vitro ADME; conditions: mean ± SE, read-out: PPB (% of Bound Compound) (converted)
Procedure: The physicochemical properties of the new compounds were evaluated (Table 1).

[12] = LogD determination; assay type: physicochemical; conditions: mean ± SE
Procedure: as §3

[13] = tested on: HCT116; assay: Cytotoxicity under normoxia and hypoxia (anaerobic chamber, sulphorhodamine B), HCT116; assay type: cell-based, human; conditions: for IC50: Homo sapiens, HCT-116, 4 h exposure, 5 days growth; for DR (Deactivation Ratio): DR = IC50 (prodrug)/IC50 (parent drug)
Procedure: (§4) We also checked if the designed prodrugs were able to liberate the active alkaloids in hypoxic tumors by testing them under hypoxic conditions using an anaerobic chamber. The three prodrugs 5a–c and their parent alkaloids as well as the reference compounds PR-104A, the parent alcohol form of the phosphate pre-prodrug PR-104, and evofosfamide were tested using the HCT116 and H460 cell lines under both normoxic and hypoxic conditions (Table 5). The prodrugs were much less cytotoxic than the parent drugs, in agreement with our observations using the other cell lines described above (Figure 6).
(§5) The extent to which a prodrug is deactivated relative to its parent drug under normoxic conditions is defined as the Deactivation Ratio (DR). The DR can be simply calculated as DR = IC50 (prodrug)/IC50 (parent drug).
(§6) The efficacy of prodrug activation under hypoxic conditions can be expressed by the Hypoxia Cytotoxicity Ratio (HCR), which can be calculated for a given prodrug as: HCR = normoxic IC50/hypoxic IC50.
as §2

[14] = tested on: H460; assay: Cytotoxicity under normoxia and hypoxia (anaerobic chamber, sulphorhodamine B), H460; assay type: cell-based, human; conditions: for IC50: Homo sapiens, NCI-H460, 4 h exposure, 5 days growth; for DR (Deactivation Ratio): DR = IC50 (prodrug)/IC50 (parent drug)
Procedure: as §4, §5, §6, §2

[15] = Human plasma stability test; assay type: in vitro ADME; conditions: 37 °C, up to 24 h, read-out: t1/2 (Human Plasma) (converted)
Procedure: (§7) Incubations were carried out in 6 aliquots of 70 μL each in duplicates. […] The reactions were stopped by adding 350 μL of acetonitrile with subsequent plasma proteins sedimentation by centrifuging at 5500 rpm for 5 min. Supernatants were analyzed by LC-MS using Shimadzu VP HPLC system including vacuum degasser, gradient pumps, reverse phase column, column oven and autosampler. The HPLC system was coupled with tandem mass spectrometer API 3000 (PE Sciex, Foster City, CA, USA). Both the positive and negative ion modes of the TurboIonSpray ion source were used. The acquisition and analysis of the data were performed using Analyst 1.5.2 software (PE Sciex, API 3000 mass spectrometer, Foster City, CA, USA). The percentage of the test compounds remaining after incubation in plasma and their half-lives (T1/2) were calculated.

[16] = Mouse plasma stability test; assay type: in vitro ADME; conditions: 37 °C, up to 24 h, read-out: t1/2 (Mouse Plasma) (converted)
Procedure: as §7

[17] = HCT116, hypoxia, read-out: IC50 (Hypoxia)
[18] = HCT116, normoxia, read-out: IC50 (Normoxia)
[19] = H460, hypoxia, read-out: IC50 (Hypoxia)
[20] = H460, normoxia, read-out: IC50 (Normoxia)

COc1ccc2c3c(c4cc(OC)c(OC)cc4c2c1)C[C@H]1CCCN1C3 [(R)-Antofine, (R)-antofine]
IC50 ([1]; SW480, normoxia, read-out: IC50 SW480): 9 ± 2 nM | IC50 ([2]; HEK293, normoxia, read-out: IC50 HEK293): 30 ± 43 nM | IC50 ([3]; HCT-116, normoxia, read-out: IC50 HCT116): 2 nM | IC50 ([4]; MCF7, normoxia, read-out: IC50 MCF7): 2 nM | IC50 ([5]; normoxia): 6 ± 1 nM | Kel (elimination rate constant) ([6]; 2 μM): 0.002 ± 0 min⁻¹ | half-life at 2 μM ([6]; microsomes): 1.12 ± 0.035 h | IC50 ([7]; CHO-K1, normoxia, read-out: IC50 CHO-K1): 33 ± 50 nM | IC50 ([8]; MRC5, normoxia, read-out: IC50 MRC5): 6 ± 2 nM | Permeability (Papp) [9]: −5.6 ± 0.58 Log [10^−6 cm/s] | solubility [10]: 27 ± 2 µM (≈ 9.81 µg/mL) | fraction unbound [11]: 0.019 | logD [12]: 3.68 ± 0.03 | HCR (Hypoxia Cytotoxicity Ratio) [13]: 0.4 | IC50 [13, 17]: 16.7 ± 9 nM | IC50 [13, 18]: 23.9 ± 7 nM | HCR (Hypoxia Cytotoxicity Ratio) [14]: 0.6 | IC50 [14, 19]: 25.4 ± 9 nM | IC50 [14, 20]: 29.2 ± 12 nM

CN1CCN(C2=Nc3cc(Cl)ccc3Nc3ccccc32)CC1 [Clozapine]
Permeability (Papp) [9]: −5.1 ± 0.12 Log [10^−6 cm/s]

Cc1nccn1CC1CCc2c(c3ccccc3n2C)C1=O (stereo not shown) [Ondansetron]
solubility [10]: 96 ± 3 µM (≈ 28.2 µg/mL)

Cn1c(COP(=O)(NCCBr)NCCBr)cnc1[N+](=O)[O-] [Evofosfamide]
HCR (Hypoxia Cytotoxicity Ratio) ([13]; HCT116, HCR = normoxic IC50/hypoxic IC50): 85 | IC50 [13, 17]: 20.1 ± 3 nM | IC50 [13, 18]: 23.9 ± 7 nM | HCR (Hypoxia Cytotoxicity Ratio) ([14]; H460, HCR = normoxic IC50/hypoxic IC50): 251 | IC50 [14, 19]: 17.2 ± 1 nM | IC50 [14, 20]: 4320 ± 1930 nM

COc1cc2c3c(c4cc(OC)c(OC)cc4c2cc1OC)C[N+]1(Cc2c([N+](=O)[O-])ncn2C)CCC[C@@H]1C3.[Br-] (stereo partly drawn) [Compound 5c, (13aR)-2,3,6,7-tetramethoxy-10-((1-methyl-4-nitro-1H-imidazol-5-yl)methyl)-10,11,12,13,13a,14-hexahydro-9H-dibenzo[f,h]pyrrolo[1,2-b]isoquinolin-10-ium bromide]
IC50 ([1]; SW480, read-out: IC50 SW480): 9860 ± 1690 nM | IC50 ([3]; HCT-116, read-out: IC50 HCT116): 9020 ± 1130 nM | IC50 ([4]; MCF7, read-out: IC50 MCF7): 8050 ± 343 nM | IC50 [5]: 8820 ± 3080 nM | IC50 ([8]; MRC5, read-out: IC50 MRC5): 3940 ± 127 nM | melting point: 185 to 187 °C | HCR (Hypoxia Cytotoxicity Ratio) [13]: 1.5 | DR (Deactivation Ratio) ([13]; HCT116, normoxia): 128 | IC50 [13, 17]: 3020 ± 656 nM | IC50 [13, 18]: 9060 ± 7590 nM | HCR (Hypoxia Cytotoxicity Ratio) [14]: 7.8 | DR (Deactivation Ratio) ([14]; H460, normoxia): 293 | IC50 [14, 19]: 6500 ± 1810 nM | IC50 [14, 20]: 51000 nM

CC(C)[N+](C)(CCOC(=O)C1c2ccccc2Oc2ccccc21)C(C)C [Propantheline]
half-life at 1 μM [15]: < 3 h | half-life at 1 μM [16]: < 3 h

COc1ccc2c3c(c4cc(OC)c(OC)cc4c2c1)C[C@H]1CCC[N+]1(Cc1c([N+](=O)[O-])ncn1C)C3.[Br-] (stereo partly drawn) [Compound 5a, (13aR)-2,3,6-trimethoxy-10-((1-methyl-4-nitro-1H-imidazol-5-yl)methyl)-10,11,12,13,13a,14-hexahydro-9H-dibenzo[f,h]pyrrolo[1,2-b]isoquinolin-10-ium bromide]
IC50 ([1]; SW480, read-out: IC50 SW480): 1350 ± 0.126 nM | IC50 ([2]; HEK293, read-out: IC50 HEK293): 5080 ± 519 nM | IC50 ([3]; HCT-116, read-out: IC50 HCT116): 1040 ± 21 nM | IC50 ([4]; MCF7, read-out: IC50 MCF7): 1530 ± 144 nM | IC50 [5]: 2030 ± 267 nM | Kel (elimination rate constant) ([6]; 2 μM): […] | metabolized into the parent drug ([6]; microsomes, 2 μM): […] | half-life at 2 μM ([6]; microsomes): […] | half-life at 1 μM [15]: 145 ± 4.7 h | IC50 ([7]; CHO-K1, read-out: IC50 CHO-K1): 1680 ± 542 nM | IC50 ([8]; MRC5, read-out: IC50 MRC5): 327 ± 147 nM | Permeability (Papp) [9]: <−7 Log [10^−6 cm/s] | half-life at 1 μM [16]: 65.1 ± 0.7 h | solubility [10]: 154 µM | fraction unbound [11]: 0.13 | logD [12]: 0.69 ± 0.01 | HCR (Hypoxia Cytotoxicity Ratio) [13]: 8.8 | DR (Deactivation Ratio) ([13]; HCT116, normoxia): 543 | IC50 [13, 17]: 425 ± 51 nM | IC50 [13, 18]: 16500 nM | HCR (Hypoxia Cytotoxicity Ratio) [14]: 26 | DR (Deactivation Ratio) ([14]; H460, normoxia): 543 | IC50 [14, 19]: 618 ± 44 nM | IC50 [14, 20]: 15800 nM
